16 molecules from US20250099407A1, “2-AMINO BENZOPHENONE DERIVATIVES FOR TARGETED FERROPTOSIS INDUCTION IN CANCER THERAPY” (INDIAN INSTITUTE OF TECHNOLOGY KANPUR, priority 2023, published 2025) can be followed below.

The subject of the first assay is Huh-7 cells. Nature of the assay: Cell viability, luminescence-based CellTiter-Glo assay, Huh-7 cells. The note with it: Homo sapiens, Huh-7, Huh-7 cells, antiproliferative activity; read-out: EC50 in Huh-7 cells. On the procedure: The viability of Huh-7 cells was recorded using a luminescence-based CellTiter-Glo® assay. The screening concentration of the molecules were 10 μM with or without Fer-1 (10 μM) in DMEM media (>0.1% DMSO as control).
Ferroptosis is a unique form of cell death mechanism mediated by the accumulation of lipid peroxides in cells which is distinct from healthy cells' apoptosis, a programmed […] route. We aimed to exploit the induction of ferroptosis in cancer cells using covalent small molecules as a potential strategy for cancer therapeutic development. […] We used various amide bond formation chemistry to construct the library members and these molecules are well characterized by various spectroscopic and mass spectrometry techniques. Once confirmed, these thiol reactive library members were screened in a cancer cell viability assay in combination with ferrostatin-1 (Fer-1), a ferroptosis inhibitor as depicted in FIG. 11. […] We have screened a total of ˜50 electrophilic small molecules to prevent the proliferation of hepatocellular carcinoma (Huh-7 cells) in combination with and without Fer-1. From our initial screening, we identified haloacetamides of 2-aminoalkylbenzophenone as potential ferroptosis inducers as depicted in FIG. 11.
The viability of screened cancer cells was recorded using a luminescence-based CellTiter-Glo® assay for the ATP quantification. The screening concentration of the molecule ranged from 100/10 μM to 45/4.5 nM with an 8-point-3-fold dilution series in DMEM media (>0.1% DMSO as control). Each experiment was conducted in more than two biological replicates with three technical replicates. The error bar is a representation of standard deviation among the technical replicates.
The viability of screened cancer cells was recorded using a luminescence-based CellTiter-Glo® assay for the ATP quantification. The screening concentration of IITK3002 ranged from 10 μM to 4.5 nM with an 8-point-3-fold dilution series in DMEM media (>0.1% DMSO as control). Each experiment was conducted in more than two biological replicates with three technical replicates. The error bar is a representation of standard deviation among the technical replicates. […]
a. Electrophilic Warhead Optimization: Once we identified 2-benzoylphenyl-a-haloacetamide as the lead scaffold, we have investigated the structure-activity-relationship analysis to precisely capture the effect of various chemical handles of the scaffold and use the knowledge to improve the overall potency and selectivity of this molecule to prevent cancer cell proliferation. First, we changed the haloacetamide electrophilic unit with various other electrophiles with a characteristic high, moderate, and weak reactivity with thiols when compared to chloroacetamide. Therefore, we opted vinylsulfonamide (highly reactivity), acrylamide (moderate reactivity), and phenoxyacetamides (weak reactivity warheads) for incorporation in the place of haloacetamide warhead of the top hit scaffold. Once synthesized, these molecules were evaluated to assess their antiproliferative potency against Huh-7 cells (Table 2). As expected, the introduction of weakly reactive electrophilic warheads, phenoxyactamides, completely lost the activity against Huh-7 cells. […] Perhaps, the secondary interactions of the electrophilic warhead with the target proteins might play additional roles. Therefore, we shifted our focus to optimize the rest of the core scaffold for further SAR analysis. b. Role of N-Substitutions: Next, we synthesized the NH-derivative of haloacetamides to capture the importance of N-alkylation on the activity of our hit molecule. […] Perhaps the hydrogen bonding induced planarity around the warhead influences the molecules' weakened potency. Conversely, the additional flexibility in the lead molecule (tertiary amide) might contribute to the strong antiproliferative activity of the hit molecule. […]
Background: In ATP-based viability assays light output follows the ATP content of the culture.
In general, EC50 refers to the concentration needed to bring the measured effect to its halfway point. For the molecule `CN(C(=O)CCl)c1ccccc1C(=O)c1ccc(-c2ccccc2)cc1` [IITK3055, N-(2-([1,1′-biphenyl]-4-carbonyl)phenyl)-2-chloro-N-methylacetamide], the EC50 stood at 2 nM.

Still in this assay, the particulars now being: Homo sapiens, Huh-7, Huh-7 cells, cell viability; read-out: EC50 Huh-7.
In the case of `CN(C(=O)COc1c(F)c(F)c(F)c(F)c1F)c1ccccc1C(=O)c1ccccc1` [IITK3007, N-(2-benzoylphenyl)-N-methyl-2-(perfluorophenoxy)acetamide], the EC50 was greater than 20000 nM.
Same read-out and setting: to `C=CCN(C(=O)COc1ccc([N+](=O)[O-])cc1)c1ccccc1C(=O)c1ccccc1` [IITK3025, N-allyl-N-(2-benzoylphenyl)-2-(4-nitrophenoxy)acetamide] belongs greater than 100000 nM; to `C#CCN(C(=O)COc1c(F)c(F)c(F)c(F)c1F)c1ccccc1C(=O)c1ccccc1` [IITK3031, N-(2-benzoylphenyl)-2-(perfluorophenoxy)-N-(prop-2-yn-1-yl)acetamide], greater than 20000 nM.
On the same count and under the same terms, to `C#CCN(C(=O)COc1ccc(C(C)(C)C)cc1)c1ccccc1C(=O)c1ccccc1` [IITK3032, N-(2-benzoylphenyl)-2-(4-(tert-butyl)phenoxy)-N-(prop-2-yn-1-yl)acetamide] belongs greater than 20000 nM; to `CN(C(=O)CCl)c1ccccc1C(=O)c1ccc(-c2ccccc2)cc1` [IITK3055, N-(2-([1,1′-biphenyl]-4-carbonyl)phenyl)-2-chloro-N-methylacetamide], 2 nM; to `CN(C(=O)CBr)c1ccccc1C(=O)c1ccc(-c2ccccc2)cc1` [IITK3056, N-(2-([1,1′-biphenyl]-4-carbonyl)phenyl)-2-bromo-N-methylacetamide], 13 nM.
The same measure, in the same setting: to `Cc1ccc(-c2ccc(C(=O)c3ccccc3N(C)C(=O)CBr)cc2)cc1` [IITK3057, 2-bromo-N-methyl-N-(2-(4′-methyl-[1,1′-biphenyl]-4-carbonyl)phenyl)acetamide] belongs 18 nM; to `CN(C(=O)CCl)c1ccccc1C(=O)c1ccc(-c2ccc(C=O)cc2)cc1` [IITK3058, 2-chloro-N-(2-(4′-formyl-[1,1′-biphenyl]-4-carbonyl)phenyl)-N-methylacetamide], 117 nM.
Consider `CN(C(=O)CBr)c1ccccc1C(=O)c1ccc(-c2ccc(C=O)cc2)cc1` [IITK3059, 2-bromo-N-(2-(4′-formyl-[1,1′-biphenyl]-4-carbonyl)phenyl)-N-methylacetamide], for which the EC50 is 79 nM.
Same read-out and setting: the value for `CN(C(=O)CCl)c1ccccc1C(=O)c1ccc(-c2ccc(C#N)cc2)cc1` [IITK3060, 2-chloro-N-(2-(4′-cyano-[1,1′-biphenyl]-4-carbonyl)phenyl)-N-methylacetamide] was 26 nM; that for `CN(C(=O)CBr)c1ccccc1C(=O)c1ccc(-c2ccc(C#N)cc2)cc1` [IITK3061, 2-bromo-N-(2-(4′-cyano-[1,1′-biphenyl]-4-carbonyl)phenyl)-N-methylacetamide] was 4820 nM; that for `CN(C(=O)CCl)c1ccccc1C(=O)c1ccc(-c2cccc(Oc3ccccc3)c2)cc1` [IITK3062, 2-chloro-N-methyl-N-(2-(3′-phenoxy-[1,1′-biphenyl]-4-carbonyl)phenyl)acetamide] was 36 nM.
Consider `CN(C(=O)CBr)c1ccccc1C(=O)c1ccc(-c2cccc(Oc3ccccc3)c2)cc1` [IITK3063, 2-bromo-N-methyl-N-(2-(3′-phenoxy-[1,1′-biphenyl]-4-carbonyl)phenyl)acetamide], for which the EC50 is 24.5 nM.
Consider `COc1ccc(-c2ccc(C(=O)c3ccccc3N(C)C(=O)CCl)cc2)cc1` [IITK3064, 2-chloro-N-(2-(4′-methoxy-[1,1′-biphenyl]-4-carbonyl)phenyl)-N-methylacetamide], for which the EC50 was 19 nM.
Turning to `COc1ccc(-c2ccc(C(=O)c3ccccc3N(C)C(=O)CBr)cc2)cc1` [IITK3065, 2-bromo-N-(2-(4′-methoxy-[1,1′-biphenyl]-4-carbonyl)phenyl)-N-methylacetamide], the EC50 turned out to be 16 nM.
Take `CN(C(=O)CCl)c1ccccc1C(=O)c1ccc(-c2ccc(F)cc2F)cc1` [IITK3066, 2-chloro-N-(2-(2′,4′-difluoro-[1,1′-biphenyl]-4-carbonyl)phenyl)-N-methylacetamide]: the EC50 was 8.83 nM.
